Reference: ChEMBL document CHEMBL1201862, “PubChem BioAssay data set” (2004)
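Assay format: 96-well plates, 48-hour exposure. GI50 = concentration required for 50% inhibition of growth.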 Active and inactive are the calls of the source. Rule as the data show it: active = GI50 up to about 1.1 µM and inactive = higher.

Key:
Test in all cases: NCI anticancer screen, dose series, 48 h
KM12 = system: KM12
TK-10 = system: TK-10
MDA-MB-231 = system: MDA-MB-231
OVCAR-8 = system: OVCAR-8
T47D = system: T47D
MCF7 = system: MCF7
HCT-116 = system: HCT-116
Hs-578T = system: Hs-578T
SF-539 = system: SF-539
RPMI-8226 = system: RPMI-8226
SK-MEL-2 = system: SK-MEL-2
CCRF-CEM = system: CCRF-CEM
MDA-MB-435 = system: MDA-MB-435
SK-OV-3 = system: SK-OV-3
SW-620 = system: SW-620
786-0 = system: 786-0
IGROV-1 = system: IGROV-1
HOP-92 = system: HOP-92
U-251 = system: U-251
HOP-62 = system: HOP-62
SNB-75 = system: SNB-75
PC-3 = system: PC-3
UACC-62 = system: UACC-62
NCI-H522 = system: NCI-H522
Malme-3M = system: Malme-3M
SNB-19 = system: SNB-19
UO-31 = system: UO-31
NCI-H460 = system: NCI-H460
OVCAR-5 = system: OVCAR-5
HCC 2998 = system: HCC 2998
K562 = system: K562
M14 = system: M14
SF-295 = system: SF-295
HL-60 = system: HL-60
SF-268 = system: SF-268
RXF 393 = system: RXF 393
MDA-N = system: MDA-N
SK-MEL-28 = system: SK-MEL-28
HT-29 = system: HT-29
UACC-257 = system: UACC-257
SK-MEL-5 = system: SK-MEL-5
A498 = system: A498
ACHN = system: ACHN
NCI-H226 = system: NCI-H226
OVCAR-3 = system: OVCAR-3
OVCAR-4 = system: OVCAR-4
SN12C = system: SN12C
DU-145 = system: DU-145
EKVX = system: EKVX
NCI-H23 = system: NCI-H23
NCI/ADR-RES = system: NCI/ADR-RES
HCT-15 = system: HCT-15
SR = system: SR
COLO 205 = system: COLO 205
A549 = system: A549
LOX IMVI = system: LOX IMVI
CAKI-1 = system: CAKI-1
MOLT-4 = system: MOLT-4
BT-549 = system: BT-549

## O=C1Nc2ccccc2/C1=N/NC(=S)Nc1ccc(Cl)cc1
KM12
  GI50: 5.77 µM (inactive)
TK-10
  GI50: 16.1 µM (inactive)
MDA-MB-231
  GI50: 26.7 µM (inactive)
OVCAR-8
  GI50: 18.2 µM (inactive)
T47D
  GI50: 83 µM (inactive)
MCF7
  GI50: 48.6 µM (inactive)
HCT-116
  GI50: 24.9 µM (inactive)
Hs-578T
  GI50: > 100 µM (inactive)
SF-539
  GI50: 29.2 µM (inactive)
RPMI-8226
  GI50: 49.7 µM (inactive)
SK-MEL-2
  GI50: 24.5 µM (inactive)
CCRF-CEM
  GI50: 22.8 µM (inactive)
MDA-MB-435
  GI50: 39.8 µM (inactive)
SK-OV-3
  GI50: 38.5 µM (inactive)
SW-620
  GI50: 29.4 µM (inactive)
786-0
  GI50: 22.3 µM (inactive)
IGROV-1
  GI50: 26.6 µM (inactive)
HOP-92
  GI50: 51.4 µM (inactive)
U-251
  GI50: 23.2 µM (inactive)
HOP-62
  GI50: 34.8 µM (inactive)
SNB-75
  GI50: 33 µM (inactive)
PC-3
  GI50: 33.7 µM (inactive)
UACC-62
  GI50: 50.7 µM (inactive)
NCI-H522
  GI50: 57 µM (inactive)
Malme-3M
  GI50: 9.62 µM (inactive)
SNB-19
  GI50: 41.8 µM (inactive)
UO-31
  GI50: 38.8 µM (inactive)
NCI-H460
  GI50: 15.5 µM (inactive)
OVCAR-5
  GI50: 64.6 µM (inactive)
HCC 2998
  GI50: > 100 µM (inactive)
K562
  GI50: 29.9 µM (inactive)
M14
  GI50: 15 µM (inactive)
SF-295
  GI50: 23.7 µM (inactive)
HL-60
  GI50: 39 µM (inactive)
SF-268
  GI50: 31.6 µM (inactive)
RXF 393
  GI50: 39.4 µM (inactive)
MDA-N
  GI50: 63.7 µM (inactive)
SK-MEL-28
  GI50: > 100 µM (inactive)
HT-29
  GI50: 41 µM (inactive)
UACC-257
  GI50: 15.2 µM (inactive)
SK-MEL-5
  GI50: 17.2 µM (inactive)
A498
  GI50: 18.3 µM (inactive)
ACHN
  GI50: 25.6 µM (inactive)
NCI-H226
  GI50: 22.2 µM (inactive)
OVCAR-3
  GI50: 25.8 µM (inactive)
OVCAR-4
  GI50: 30.4 µM (inactive)
SN12C
  GI50: 29.3 µM (inactive)
DU-145
  GI50: > 100 µM (inactive)
EKVX
  GI50: 36.2 µM (inactive)
NCI-H23
  GI50: 57.4 µM (inactive)
NCI/ADR-RES
  GI50: 12.1 µM (inactive)
HCT-15
  GI50: 20.2 µM
SR
  GI50: 10.8 µM (inactive)
COLO 205
  GI50: 40.8 µM (inactive)
A549
  GI50: 34.6 µM (inactive)
LOX IMVI
  GI50: 27.7 µM (inactive)
CAKI-1
  GI50: 11.3 µM (inactive)
MOLT-4
  GI50: 26.1 µM (inactive)

## Cc1csc(-n2c(C)nc3cc(Cl)ccc3c2=O)n1
KM12
  GI50: > 100 µM (inactive)
TK-10
  GI50: > 100 µM (inactive)
MDA-MB-231
  GI50: > 100 µM (inactive)
OVCAR-8
  GI50: > 100 µM (inactive)
MCF7
  GI50: 31.5 µM (inactive)
HCT-116
  GI50: > 100 µM (inactive)
SF-539
  GI50: > 100 µM (inactive)
SK-MEL-2
  GI50: > 100 µM (inactive)
CCRF-CEM
  GI50: 74.8 µM (inactive)
MDA-MB-435
  GI50: > 100 µM (inactive)
SK-OV-3
  GI50: > 100 µM (inactive)
SW-620
  GI50: > 100 µM (inactive)
786-0
  GI50: > 100 µM (inactive)
IGROV-1
  GI50: 33.2 µM (inactive)
HOP-92
  GI50: 10.4 µM (inactive)
U-251
  GI50: > 100 µM (inactive)
HOP-62
  GI50: > 100 µM (inactive)
SNB-75
  GI50: > 100 µM (inactive)
PC-3
  GI50: > 100 µM (inactive)
UACC-62
  GI50: > 100 µM (inactive)
NCI-H522
  GI50: 22.2 µM (inactive)
SNB-19
  GI50: > 100 µM (inactive)
UO-31
  GI50: 58.2 µM (inactive)
NCI-H460
  GI50: > 100 µM (inactive)
OVCAR-5
  GI50: > 100 µM (inactive)
HCC 2998
  GI50: > 100 µM (inactive)
K562
  GI50: 83.6 µM (inactive)
M14
  GI50: > 100 µM (inactive)
SF-295
  GI50: > 100 µM (inactive)
HL-60
  GI50: > 100 µM (inactive)
SF-268
  GI50: 42.8 µM (inactive)
RXF 393
  GI50: > 100 µM (inactive)
MDA-N
  GI50: > 100 µM (inactive)
SK-MEL-28
  GI50: > 100 µM (inactive)
HT-29
  GI50: > 100 µM (inactive)
UACC-257
  GI50: 91.6 µM (inactive)
SK-MEL-5
  GI50: 43.1 µM (inactive)
A498
  GI50: > 100 µM (inactive)
ACHN
  GI50: > 100 µM (inactive)
NCI-H226
  GI50: > 100 µM (inactive)
OVCAR-3
  GI50: 78.9 µM (inactive)
OVCAR-4
  GI50: 45.4 µM (inactive)
SN12C
  GI50: > 100 µM (inactive)
DU-145
  GI50: > 100 µM (inactive)
EKVX
  GI50: 8.02 µM (inactive)
NCI-H23
  GI50: 71.8 µM (inactive)
NCI/ADR-RES
  GI50: 86.3 µM (inactive)
HCT-15
  GI50: 67.5 µM
SR
  GI50: > 100 µM (inactive)
COLO 205
  GI50: 71 µM (inactive)
BT-549
  GI50: > 100 µM (inactive)
A549
  GI50: > 100 µM (inactive)
LOX IMVI
  GI50: 96.2 µM (inactive)
CAKI-1
  GI50: > 100 µM (inactive)
MOLT-4
  GI50: 46.7 µM (inactive)
